Results reported in patent publication US4452807A, “(R,S)-1-(3-Hydroxy-4-methoxybenzoyl)-3-hydroxy-2-pyrrolidinone intermediates therefor and use for treating cerebral insufficiency” (Hoffmann-La Roche Inc., priority 1981, dated 1984).

assay: Acute toxicity, single oral administration to mice; details: mouse, in vivo, p.o.
Text: Moreover, the Table contains data concerning the acute toxicity, that is, LD50 in mg/kg in the case of single oral administration to mice.

COc1ccc(C(=O)N2CCC(O)C2=O)cc1O (racemic) [R,S, (R,S)-1-(3-hydroxy-4-methoxybenzoyl)-3-hydroxy-2-pyrrolidinone] and COc1ccc(C(=O)N2CC[C@@H](O)C2=O)cc1O [R, (R)-1-(3-hydroxy-4-methoxybenzoyl)-3-hydroxy-2-pyrrolidinone] cannot be ordered by LD50: greater than 5000 mg/kg for the first, greater than 5000 mg/kg for the second.

COc1ccc(C(=O)N2CC[C@H](O)C2=O)cc1O [S, (S)-1-(3-hydroxy-4-methoxybenzoyl)-3-hydroxy-2-pyrrolidinone] showed an LD50 greater than 4000 mg/kg.
